Values belong to the molecule of their own block, whether it stands above or below them.
How the values were obtained:
human SARP-2 = molecular target: T1, human SARP-2 (Homo sapiens, UniProt Q8N474); experiment: Reversal of PGE2-accelerated hOB cell death, Coulter cell counter; type: cell-based; conditions: co-treatment with PGE2, hOB-03-C5 and hOB-03-CE6 cells
T1 construct: endogenous in cells; host or cells: hOB-03-C5 and hOB-03-CE6 human osteoblast cell lines treated with PGE2
T1 sequence (Q8N474 32-314): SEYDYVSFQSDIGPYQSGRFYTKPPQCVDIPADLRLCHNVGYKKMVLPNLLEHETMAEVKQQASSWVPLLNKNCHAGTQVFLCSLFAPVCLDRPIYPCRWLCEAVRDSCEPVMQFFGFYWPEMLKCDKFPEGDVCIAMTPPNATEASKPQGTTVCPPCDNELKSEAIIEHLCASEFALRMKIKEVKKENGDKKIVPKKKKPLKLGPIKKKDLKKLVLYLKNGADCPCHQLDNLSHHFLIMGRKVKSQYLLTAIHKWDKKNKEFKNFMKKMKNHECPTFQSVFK
Procedure: (§1) These experiments were performed in a similar manner to the ones depicted in FIG. 10. However, for these experiments, the cells were co-treated with either vehicle control (i.e., 0.1% ethanol) or PGE2 in the absence or presence of sense (control) or antisense initiation-site directed phosphorothioate oligonucleotides to human SARP-2. The results are presented as either the % relative to the day 0 control (i.e., ˜200,000 cells per well of a 6 well plate) or as the % relative to the vehicle treated control. The results of this experiment indicate that co-treatment of the hOB cells with the antisense oligonucleotide to SARP-2 reverses the ability of PGE2 to accelerate the rate of cell death, while co-treatment with the sense (control) oligonucleotide as no effect on this process.
as §1, with “The results of this experiment indicate that co-treatment of the hOB cells with the antisense oligonucleotide to SARP-2 reverses the ability of PGE2 to accelerate the rate of cell death, while co-treatment with the sense (control) oligonucleotide as no effect on this process.” left out

hOB SFRP mRNA = hOB SFRP mRNA levels after treatment with various agents (method not given); type: cell-based, human; conditions: for effect on hOB SFRP mRNA levels: hOB-03-C5 cells or hOB-03-CE6 cells; for effect on hOB SFRP message expression: various hOB cell lines
hOB-01-C1-PS-09 cells [1] = experiment: Alkaline phosphatase activity in hOB-01-C1-PS-09 cells; type: cell-based, human
Text: (§2) Unlike the parental hOB-01-C1 cell line, the hOB-01-C1-PS-09 cells proliferate 2- to 3-times faster at the permissive temperature with a doubling time of once every 2–3 days (FIG. 22A). However, like the parental cells, the hOB-01-C1-PS-09 cells stop dividing at the non-permissive temperature (FIG. 22A). […] Alkaline phosphatase and osteocalcin are two important markers of the osteocytic lineage.
In addition to vitamin D3 and PTH, the hOB-01-C1-PS-09 cells also respond to additional bone-active agents: for example, glucocorticoids and transforming growth factor (TGF)-β1. Treatment of the cells with the synthetic glucocorticoid, dexamethasone, up-regulates alkaline phosphatase activity approximately 2-fold at 34° C. (FIG. 25), and this effect is once again enhanced when the cells are incubated at 39° C.

hOB-01-C1-PS-09 cells [2] = experiment: Osteocalcin secretion from hOB-01-C1-PS-09 cells; type: cell-based, human
Text: as §2
However, the secosteroid up-regulates production of this bone-specific matrix protein 11-fold when the cells are incubated at 39° C. It should be noted that the basal levels of alkaline phosphatase expression and osteocalcin secretion by the hOB-01-C1-PS-09 cells are similar to the parental cell line. Thus, both morphologically and biochemically, the hOB-01-C1-PS-09 cells resemble the parental hOB-01-C1 cells and are therefore a reliable in vitro model to study human pre-osteocyte biology.

Wnt signaling = experiment: TCF-luciferase reporter gene assay of Wnt signaling; type: cell-based, human; conditions: transfected cDNA, hOB-01-C1-PS-09 or hOB-02-C1-PS-02 cells
Procedure: SARP-2 or human Frzb-1 expression plasmids downregulates Wnt signaling (when compared to the pcDNA3.1 empty vector control) in the hOB cells as measured by the TCF-luciferase reporter gene assay. This assay is an authentic measurement of Wnt signaling and β-catenin nuclear activity.
In order to determine if the up-regulation of SFRP-1/FRP-1/SARP-2 gene expression results in an antagonism of the Wnt signaling pathway, hOB-03-CE6 cells were treated with PGE2 and the resulting cells probed with β-catenin monoclonal antibody. Overexpression of Wnt proteins in cells up-regulates a signaling protein known as β-catenin (reviewed in Moon et al. 1997 Cell 88: 725–728; Barth et al. 1997 Curr. Opin. Cell Biol. 9: 683–690; and Nusse 1997 Cell 89: 321–323). […] Therefore, hOB-03-CE6 cells were plated and treated with PGE2 as described in Example 1, except that total cellular protein was extracted and a Western blot analysis for β-catenin was performed using a monoclonal antibody to the protein (Transduction Laboratories) as previously described (Bodine et al. 1996 Endocrinology 137: 4592–4604; Melkonyan et al. 1997 Proc. Natl. Acad. Sci. USA 94: 13636–13641). […] Both human and rat SFRP-1/FRP-1/SARP-2, as well as human Frzb-1/FrzB/Fritz, suppressed TCF-luciferase activity in the hOB cells.

Molecule: 5′-GCGCCCGATGCCCATGCC-3′ (phosphorothioate, further chemistry not given here) [antisense oligonucleotide to SARP-2, antisense initiation-site directed phosphorothioate oligonucleotide to human SARP-2]
- effect on the ability of PGE2 to accelerate the rate of hOB cell death (human SARP-2): reversed

Molecule: 5′-GGCATGGGCATCGGGCGC-3′ (phosphorothioate, further chemistry not given here) [sense (control) oligonucleotide, sense (control) initiation-site directed phosphorothioate oligonucleotide to human SARP-2]
- effect on the ability of PGE2 to accelerate the rate of hOB cell death (human SARP-2): no effect

Molecule: CC1=C(/C=C/C(C)=C\C=C\C(C)=C\C(=O)O)C(C)(C)CCC1 [9-cis-retinoic acid]
- effect on hOB SFRP mRNA levels (hOB SFRP mRNA): increases

Molecule: C[C@]12CC[C@@H]3c4ccc(O)cc4CC[C@H]3[C@@H]1CC[C@@H]2O [17β-estradiol]
- effect on hOB SFRP message expression (hOB SFRP mRNA): suppresses

Molecule: CC1=C(/C=C/C(C)=C/C=C/C(C)=C/C(=O)O)C(C)(C)CCC1 [all-trans-retinoic acid]
- effect on hOB SFRP mRNA levels (hOB SFRP mRNA): increases

Molecule: C[C@@H]1C[C@H]2[C@@H]3CCC4=CC(=O)C=C[C@]4(C)[C@@]3(F)[C@@H](O)C[C@]2(C)[C@@]1(O)C(=O)CO [dexamethasone]
- up-regulation of alkaline phosphatase activity (hOB-01-C1-PS-09 cells [1]; 34° C.): approximately 2 fold

Molecule: C=C1CC[C@H](O)C/C1=C/C=C1\CCC[C@]2(C)[C@@H]([C@H](C)CCCC(C)C)CC[C@@H]12 [vitamin D3]
- osteocalcin secretion (hOB-01-C1-PS-09 cells [2]; 34° C.): unable to induce
- up-regulation of osteocalcin production (hOB-01-C1-PS-09 cells [2]; 39° C.): 11 fold
- enhancement of up-regulation of alkaline phosphatase activity at 39° C. (hOB-01-C1-PS-09 cells [1]; cells incubated at 39° C.): about 4 fold
- effect on hOB SFRP message expression (hOB SFRP mRNA): suppresses

Molecule: insulin-like growth factor (IGF)-I: insulin-like growth factor (IGF)-I
- effect on hOB SFRP message expression (hOB SFRP mRNA): suppresses

Molecule: interleukin (IL)-1β: interleukin (IL)-1β
- effect on hOB SFRP mRNA levels (hOB SFRP mRNA): increases

- TCF-luciferase activity (Wnt signaling): suppressed
B1: human Frzb-1/FrzB/Fritz: human Frzb-1 expression plasmid transfected into hOB cells (protein)
chain: AACEPVRIPLCKSLPWNMTKMPNHLHHSTQANAILAIEQFEGLLGTHCSPDLLFFLCAMYAPICTIDFQHEPIKPCKSVCERARQGCEPILIKYRHSWPENLACEELPVYDRGVCISPEAIVTADGADFPMDSSNGNCRGASSERCKCKPIRATQKTYFRNNYNYVIRAKVKEIKTKCHDVTAVVEVKEILKSSLVNIPRDTVNLYTSSGCLCPPLNVNEEYIIMGYEDEERSRLLLVEGSIAEKWKDRLGKKVKRWDMKLRHLGLSKSDSSNSDSTQSQKSGRNSNPRQARN
